A short description of data set [1]: Aqueous solubility of compound at pH 6.8 Japanese Pharmacopoeia 2nd fluid for disintegration test at 130 uM after 20 hrs by liquid chromatography method. It counts as physicochemical.
A further data set concerns B-cell. In words: Antiproliferative activity against anti-IgM antibody-stimulated BALB/c mouse B cells after 2 days by Alamar Blue reagent-based assay. Conditions: 48 h. (In general: Alamar Blue is a resazurin reagent that responds to reducing activity.)
Data set [2] concerns the target Phosphatidylinositol 4,5-bisphosphate 3-kinase catalytic subunit gamma isoform (Homo sapiens, UniProt P48736). In words: Inhibition of recombinant human PI3Kgamma using PIP2 as substrate after 35 to 40 mins by HTRF assay. On the technique in general: Time-resolved FRET reads energy transfer from a long-lived donor to a nearby acceptor.
Data set [3] is described as follows: AUC (24 hrs) in BALB/c mouse at 3 mg/kg, po by LC-MS/MS analysis. It counts as ADME, organism-based. More on the design: dose 3 mg/kg, time < 24 hr, route oral. Conditions: in vivo.
The target of data set [4] is Phosphatidylinositol 4,5-bisphosphate 3-kinase catalytic subunit beta isoform (Homo sapiens, UniProt P42338). In words: Inhibition of recombinant human PI3Kbeta using PIP2 as substrate after 35 to 40 mins by HTRF assay.
For another data set, the target named is Cytochrome P450 3A4 (Homo sapiens, UniProt P08684). In words: Inhibition of CYP3A4 in human liver microsomes at 5 uM using midazolam as substrate after 20 mins by LC-MS/MS analysis. Format: ADME. For orientation: Liver microsomes are vesicles of endoplasmic reticulum, rich in cytochrome P450 enzymes.
Data set [5] concerns the target Phosphatidylinositol 4,5-bisphosphate 3-kinase catalytic subunit alpha isoform (Homo sapiens, UniProt P42336). In words: Inhibition of human PI3Kalpha using phosphatidyl inositol as substrate after 3 hrs by Kinase-Glo Plus reagent-based luminescence assay.
Data set [6] in a line: Total clearance in BALB/c mouse at 1 mg/kg, iv or 3 mg/kg, po by LC-MS/MS analysis. Format: ADME, organism-based. Conditions: in vivo.
For data set [7], the system named is Mus musculus. In words: Inhibition of TNP-Ficoll induced antibody production in BALB/c mouse at 2 mg/kg, po qd measured on day 4 by ELISA. Format: functional, organism-based.
A short description of data set [8]: Cmax in BALB/c mouse at 1 mg/kg, iv or 3 mg/kg, po by LC-MS/MS analysis. It counts as ADME, organism-based. The following applies: in vivo.
A short description of data set [9]: Volume of distribution at steady state in BALB/c mouse at 1 mg/kg, iv or 3 mg/kg, po by LC-MS/MS analysis. It counts as ADME, organism-based. The following applies: in vivo, read-out: Vdss.
Another data set has as its target Cytochrome P450 2C19 (Homo sapiens, UniProt P33261). In words: Inhibition of CYP2C19 in human liver microsomes at 5 uM using S-mephenytoin as substrate after 20 mins by LC-MS/MS analysis. It counts as ADME.
Data set [10] is described as follows: Tmax in BALB/c mouse at 1 mg/kg, iv or 3 mg/kg, po by LC-MS/MS analysis. It counts as ADME, organism-based. The following applies: in vivo.
Data set [11] is described as follows: Oral bioavailability in BALB/c mouse at 3 mg/kg by LC-MS/MS analysis. Format: ADME, organism-based. Conditions: in vivo.
The nature of data set [12]: Unbound fraction in mouse plasma at 2 uM incubated for 6 hrs by LC-MS/MS analysis. Format: ADME, cell-free.
A short description of data set [13]: Half life in BALB/c mouse at 1 mg/kg, iv or 3 mg/kg, po by LC-MS/MS analysis. It counts as ADME, organism-based. Conditions: in vivo.
The target in a further data set is Cytochrome P450 2C9 (Homo sapiens, UniProt P11712). In words: Inhibition of CYP2C9 in human liver microsomes at 5 uM using diclofenac as substrate after 20 mins by LC-MS/MS analysis. It counts as ADME.
Data set [14] is described as follows: Permeability of the compound at 50 uM after 2 hrs by PAMPA. Format: ADME. Conditions: read-out: permeability.
Data set [15] deals with T1, Phosphatidylinositol 4,5-bisphosphate 3-kinase catalytic subunit delta isoform (Homo sapiens, UniProt O00329).
T1 sequence (O00329 whole entry): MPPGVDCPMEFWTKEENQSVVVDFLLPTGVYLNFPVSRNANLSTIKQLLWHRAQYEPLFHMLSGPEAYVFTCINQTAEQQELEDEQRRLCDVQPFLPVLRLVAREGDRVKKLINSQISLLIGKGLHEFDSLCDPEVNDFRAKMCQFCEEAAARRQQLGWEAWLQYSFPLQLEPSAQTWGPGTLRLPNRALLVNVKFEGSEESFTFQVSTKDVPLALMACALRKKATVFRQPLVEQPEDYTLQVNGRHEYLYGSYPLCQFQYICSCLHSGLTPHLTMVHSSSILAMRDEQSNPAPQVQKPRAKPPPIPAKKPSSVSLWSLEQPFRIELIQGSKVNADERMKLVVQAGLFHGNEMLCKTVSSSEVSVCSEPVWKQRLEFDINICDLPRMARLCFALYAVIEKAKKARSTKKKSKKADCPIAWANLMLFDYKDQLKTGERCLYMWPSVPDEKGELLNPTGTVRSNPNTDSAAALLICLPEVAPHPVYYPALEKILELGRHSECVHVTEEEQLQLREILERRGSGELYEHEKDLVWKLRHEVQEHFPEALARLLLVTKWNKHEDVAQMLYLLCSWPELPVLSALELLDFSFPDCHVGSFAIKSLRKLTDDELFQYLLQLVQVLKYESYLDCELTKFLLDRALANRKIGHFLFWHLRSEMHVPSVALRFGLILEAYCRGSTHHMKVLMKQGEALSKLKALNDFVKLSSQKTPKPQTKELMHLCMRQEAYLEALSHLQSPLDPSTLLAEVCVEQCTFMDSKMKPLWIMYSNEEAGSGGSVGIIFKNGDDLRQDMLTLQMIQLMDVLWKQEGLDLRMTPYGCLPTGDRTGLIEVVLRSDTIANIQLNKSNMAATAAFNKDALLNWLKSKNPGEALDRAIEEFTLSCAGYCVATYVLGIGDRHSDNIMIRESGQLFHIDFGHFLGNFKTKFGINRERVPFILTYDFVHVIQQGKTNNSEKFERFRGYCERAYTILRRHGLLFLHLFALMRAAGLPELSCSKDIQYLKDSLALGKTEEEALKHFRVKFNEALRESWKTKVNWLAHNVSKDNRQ
In words: Inhibition of recombinant human PI3Kdelta using PIP2 as substrate after 35 to 40 mins by HTRF assay.

Data set [16] relates to Mus musculus. In words: Inhibition of TNP-Ficoll induced antibody production in po dosed BALB/c mouse administered twice daily measured on day 4 by ELISA. Format: functional, organism-based.
In another data set the target is Cytochrome P450 2D6 (Homo sapiens, UniProt P10635). In words: Inhibition of CYP2D6 in human liver microsomes at 5 uM using dextromethorphan as substrate after 20 mins by LC-MS/MS analysis. It counts as ADME.
The next data set concerns the target T2, Cytochrome P450 2C8 (Homo sapiens, UniProt P10632).
T2 sequence (P10632 whole entry): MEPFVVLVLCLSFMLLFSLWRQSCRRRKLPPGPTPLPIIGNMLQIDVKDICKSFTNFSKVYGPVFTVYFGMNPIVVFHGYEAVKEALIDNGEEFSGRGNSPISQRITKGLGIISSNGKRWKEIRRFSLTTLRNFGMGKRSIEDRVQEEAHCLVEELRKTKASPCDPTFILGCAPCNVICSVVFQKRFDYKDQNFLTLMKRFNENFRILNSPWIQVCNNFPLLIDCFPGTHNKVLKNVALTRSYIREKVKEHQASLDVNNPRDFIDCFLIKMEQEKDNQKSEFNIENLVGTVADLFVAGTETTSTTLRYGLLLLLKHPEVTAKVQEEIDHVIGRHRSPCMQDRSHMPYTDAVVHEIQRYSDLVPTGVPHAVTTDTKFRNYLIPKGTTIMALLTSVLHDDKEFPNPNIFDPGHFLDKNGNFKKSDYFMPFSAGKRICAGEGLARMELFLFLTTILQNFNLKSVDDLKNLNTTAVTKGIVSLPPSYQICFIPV
In words: Inhibition of CYP2C8 in human liver microsomes at 5 uM using amodiaquine as substrate after 20 mins by LC-MS/MS analysis. Format: ADME.

Data set [17] in a line: Intrinsic clearance in CD1 mouse liver microsomes at 0.2 uM up to 45 mins in presence of NADPH by LC-MS/MS analysis. Format: ADME, Microsome. Conditions: read-out: CLH.
In the next data set the target is T3, Cytochrome P450 1A2 (Homo sapiens, UniProt P05177).
T3 sequence (P05177 whole entry): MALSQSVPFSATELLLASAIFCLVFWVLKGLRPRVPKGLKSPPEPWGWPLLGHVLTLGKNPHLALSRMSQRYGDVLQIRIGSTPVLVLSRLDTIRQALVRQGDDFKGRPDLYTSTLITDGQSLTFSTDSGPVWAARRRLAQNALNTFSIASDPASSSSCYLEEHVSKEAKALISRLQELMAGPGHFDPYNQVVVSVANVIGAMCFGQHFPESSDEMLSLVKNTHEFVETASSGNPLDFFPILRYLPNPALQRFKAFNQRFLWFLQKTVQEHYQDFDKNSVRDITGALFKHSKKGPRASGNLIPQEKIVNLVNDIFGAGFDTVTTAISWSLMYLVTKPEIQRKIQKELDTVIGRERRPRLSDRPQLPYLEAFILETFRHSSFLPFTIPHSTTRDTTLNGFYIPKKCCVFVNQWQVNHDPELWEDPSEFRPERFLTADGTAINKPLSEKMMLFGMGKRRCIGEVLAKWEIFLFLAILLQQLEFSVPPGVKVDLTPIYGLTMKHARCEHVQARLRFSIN
In words: Inhibition of CYP1A2 in human liver microsomes at 5 uM using phenacetin as substrate after 20 mins by LC-MS/MS analysis. Format: ADME.

Molecules are shown by their SMILES. Active and inactive are the calls of the source.

Here are results for 1 compound from ChEMBL document CHEMBL4368932 (Bioorg Med Chem, 2019).

Chain of Phosphatidylinositol 4,5-bisphosphate 3-kinase catalytic subunit alpha isoform (P42336 whole entry, canonical isoform): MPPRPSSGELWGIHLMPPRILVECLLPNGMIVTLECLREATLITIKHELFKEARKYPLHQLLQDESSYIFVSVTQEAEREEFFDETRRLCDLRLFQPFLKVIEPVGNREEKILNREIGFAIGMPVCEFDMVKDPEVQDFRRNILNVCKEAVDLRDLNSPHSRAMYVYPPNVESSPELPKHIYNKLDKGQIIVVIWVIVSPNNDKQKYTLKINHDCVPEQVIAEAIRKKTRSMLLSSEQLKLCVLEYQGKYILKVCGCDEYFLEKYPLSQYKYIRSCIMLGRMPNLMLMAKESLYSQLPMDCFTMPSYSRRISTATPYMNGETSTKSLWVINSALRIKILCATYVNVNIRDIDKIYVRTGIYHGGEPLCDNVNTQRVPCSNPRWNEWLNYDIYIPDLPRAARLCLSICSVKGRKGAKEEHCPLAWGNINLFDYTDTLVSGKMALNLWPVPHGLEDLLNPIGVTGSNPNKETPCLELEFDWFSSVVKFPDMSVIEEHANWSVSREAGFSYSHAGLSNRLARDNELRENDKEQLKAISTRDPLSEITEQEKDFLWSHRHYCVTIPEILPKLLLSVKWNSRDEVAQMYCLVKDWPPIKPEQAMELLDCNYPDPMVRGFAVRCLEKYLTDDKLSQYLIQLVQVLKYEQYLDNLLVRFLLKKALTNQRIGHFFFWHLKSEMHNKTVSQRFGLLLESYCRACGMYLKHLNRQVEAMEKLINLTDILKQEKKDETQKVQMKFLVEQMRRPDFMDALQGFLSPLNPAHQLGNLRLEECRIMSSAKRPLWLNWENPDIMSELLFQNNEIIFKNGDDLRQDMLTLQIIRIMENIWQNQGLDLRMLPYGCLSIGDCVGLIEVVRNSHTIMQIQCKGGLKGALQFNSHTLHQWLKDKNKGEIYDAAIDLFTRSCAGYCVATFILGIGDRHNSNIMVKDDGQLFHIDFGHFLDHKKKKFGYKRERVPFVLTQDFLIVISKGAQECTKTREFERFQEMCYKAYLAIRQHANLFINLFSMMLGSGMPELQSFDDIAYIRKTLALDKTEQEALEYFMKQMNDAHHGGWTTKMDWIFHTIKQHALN
Chain of Cytochrome P450 3A4 (P08684 whole entry, canonical isoform): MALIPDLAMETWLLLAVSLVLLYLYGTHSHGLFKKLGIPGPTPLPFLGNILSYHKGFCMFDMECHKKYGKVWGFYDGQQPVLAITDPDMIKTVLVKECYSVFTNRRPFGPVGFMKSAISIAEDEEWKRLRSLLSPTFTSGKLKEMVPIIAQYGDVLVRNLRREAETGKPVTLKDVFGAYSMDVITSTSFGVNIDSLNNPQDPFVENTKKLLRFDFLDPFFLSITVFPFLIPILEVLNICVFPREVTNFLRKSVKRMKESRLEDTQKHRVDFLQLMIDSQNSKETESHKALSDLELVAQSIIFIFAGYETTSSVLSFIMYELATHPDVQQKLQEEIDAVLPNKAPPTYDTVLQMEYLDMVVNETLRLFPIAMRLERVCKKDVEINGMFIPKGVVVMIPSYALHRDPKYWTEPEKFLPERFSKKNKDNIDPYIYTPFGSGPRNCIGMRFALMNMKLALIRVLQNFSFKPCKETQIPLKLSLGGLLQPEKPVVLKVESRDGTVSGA
Chain of Cytochrome P450 2C9 (P11712 whole entry): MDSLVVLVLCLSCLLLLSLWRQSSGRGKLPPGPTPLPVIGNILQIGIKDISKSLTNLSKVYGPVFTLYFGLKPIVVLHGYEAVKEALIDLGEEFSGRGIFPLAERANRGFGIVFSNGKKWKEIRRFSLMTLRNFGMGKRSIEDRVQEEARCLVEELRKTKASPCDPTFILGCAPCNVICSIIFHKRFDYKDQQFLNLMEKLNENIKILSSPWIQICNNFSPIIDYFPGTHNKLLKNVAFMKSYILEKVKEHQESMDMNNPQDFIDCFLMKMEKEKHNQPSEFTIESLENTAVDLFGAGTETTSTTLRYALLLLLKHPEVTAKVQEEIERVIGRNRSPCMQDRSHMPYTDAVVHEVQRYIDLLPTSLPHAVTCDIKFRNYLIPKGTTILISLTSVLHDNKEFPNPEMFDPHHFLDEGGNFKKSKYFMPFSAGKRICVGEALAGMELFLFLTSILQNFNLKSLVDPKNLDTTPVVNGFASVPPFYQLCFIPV
Chain of Phosphatidylinositol 4,5-bisphosphate 3-kinase catalytic subunit gamma isoform (P48736 whole entry, canonical isoform): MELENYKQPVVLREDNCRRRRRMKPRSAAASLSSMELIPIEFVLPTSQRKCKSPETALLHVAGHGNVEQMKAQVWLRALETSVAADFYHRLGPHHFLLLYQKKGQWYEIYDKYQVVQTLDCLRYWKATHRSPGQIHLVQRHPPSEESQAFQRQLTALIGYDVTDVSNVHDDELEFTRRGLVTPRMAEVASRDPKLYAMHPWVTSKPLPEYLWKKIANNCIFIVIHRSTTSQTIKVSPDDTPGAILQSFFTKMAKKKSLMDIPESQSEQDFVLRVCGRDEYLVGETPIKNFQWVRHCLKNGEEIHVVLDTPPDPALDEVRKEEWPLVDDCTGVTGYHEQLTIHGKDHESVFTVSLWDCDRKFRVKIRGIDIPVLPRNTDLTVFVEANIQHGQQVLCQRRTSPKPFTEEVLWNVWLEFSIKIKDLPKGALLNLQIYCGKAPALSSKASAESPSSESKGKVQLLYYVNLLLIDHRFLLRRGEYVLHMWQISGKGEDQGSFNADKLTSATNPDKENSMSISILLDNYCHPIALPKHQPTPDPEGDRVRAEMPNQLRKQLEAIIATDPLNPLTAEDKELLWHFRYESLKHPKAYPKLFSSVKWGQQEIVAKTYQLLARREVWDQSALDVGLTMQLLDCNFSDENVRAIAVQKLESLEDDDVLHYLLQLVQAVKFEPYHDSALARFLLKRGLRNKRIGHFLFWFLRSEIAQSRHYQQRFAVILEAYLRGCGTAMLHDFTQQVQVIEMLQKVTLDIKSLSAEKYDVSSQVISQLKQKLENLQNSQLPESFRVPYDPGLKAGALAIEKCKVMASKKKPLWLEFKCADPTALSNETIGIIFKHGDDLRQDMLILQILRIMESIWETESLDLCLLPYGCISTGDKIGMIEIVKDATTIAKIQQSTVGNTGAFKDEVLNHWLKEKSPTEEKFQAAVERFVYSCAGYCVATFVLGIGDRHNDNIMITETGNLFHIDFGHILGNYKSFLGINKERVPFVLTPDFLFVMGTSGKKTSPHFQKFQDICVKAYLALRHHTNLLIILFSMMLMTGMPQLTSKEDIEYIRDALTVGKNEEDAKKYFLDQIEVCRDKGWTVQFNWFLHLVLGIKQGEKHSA
Chain of Phosphatidylinositol 4,5-bisphosphate 3-kinase catalytic subunit beta isoform (P42338 whole entry, canonical isoform): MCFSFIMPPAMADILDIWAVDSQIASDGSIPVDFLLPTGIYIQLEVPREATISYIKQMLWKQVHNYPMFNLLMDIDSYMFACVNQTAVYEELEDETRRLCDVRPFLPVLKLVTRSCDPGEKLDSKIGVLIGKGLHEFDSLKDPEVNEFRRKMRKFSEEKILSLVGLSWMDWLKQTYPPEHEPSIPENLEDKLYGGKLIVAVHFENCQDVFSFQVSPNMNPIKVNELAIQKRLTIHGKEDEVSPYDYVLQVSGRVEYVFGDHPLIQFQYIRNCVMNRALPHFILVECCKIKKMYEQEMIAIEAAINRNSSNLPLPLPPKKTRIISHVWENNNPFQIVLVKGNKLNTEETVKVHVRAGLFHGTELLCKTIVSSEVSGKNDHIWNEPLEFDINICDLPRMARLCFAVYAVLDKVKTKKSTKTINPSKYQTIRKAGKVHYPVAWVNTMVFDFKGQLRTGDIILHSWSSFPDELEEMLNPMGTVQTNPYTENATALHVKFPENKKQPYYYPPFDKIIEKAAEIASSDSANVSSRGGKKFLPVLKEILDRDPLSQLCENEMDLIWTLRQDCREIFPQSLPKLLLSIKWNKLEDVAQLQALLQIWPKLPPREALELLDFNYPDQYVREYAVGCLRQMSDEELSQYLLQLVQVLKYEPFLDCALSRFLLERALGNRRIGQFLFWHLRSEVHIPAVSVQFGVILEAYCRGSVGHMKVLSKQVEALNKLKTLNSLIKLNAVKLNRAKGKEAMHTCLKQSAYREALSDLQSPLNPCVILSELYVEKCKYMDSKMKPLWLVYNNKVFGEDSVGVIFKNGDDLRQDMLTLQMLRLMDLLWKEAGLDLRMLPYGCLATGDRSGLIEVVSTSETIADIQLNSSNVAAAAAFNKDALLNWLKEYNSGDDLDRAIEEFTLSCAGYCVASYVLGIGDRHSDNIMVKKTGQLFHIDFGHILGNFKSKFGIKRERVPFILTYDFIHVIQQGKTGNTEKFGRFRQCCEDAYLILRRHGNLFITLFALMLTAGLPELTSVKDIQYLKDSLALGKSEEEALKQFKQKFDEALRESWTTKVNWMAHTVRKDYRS
Chain of Cytochrome P450 2C19 (P33261 whole entry): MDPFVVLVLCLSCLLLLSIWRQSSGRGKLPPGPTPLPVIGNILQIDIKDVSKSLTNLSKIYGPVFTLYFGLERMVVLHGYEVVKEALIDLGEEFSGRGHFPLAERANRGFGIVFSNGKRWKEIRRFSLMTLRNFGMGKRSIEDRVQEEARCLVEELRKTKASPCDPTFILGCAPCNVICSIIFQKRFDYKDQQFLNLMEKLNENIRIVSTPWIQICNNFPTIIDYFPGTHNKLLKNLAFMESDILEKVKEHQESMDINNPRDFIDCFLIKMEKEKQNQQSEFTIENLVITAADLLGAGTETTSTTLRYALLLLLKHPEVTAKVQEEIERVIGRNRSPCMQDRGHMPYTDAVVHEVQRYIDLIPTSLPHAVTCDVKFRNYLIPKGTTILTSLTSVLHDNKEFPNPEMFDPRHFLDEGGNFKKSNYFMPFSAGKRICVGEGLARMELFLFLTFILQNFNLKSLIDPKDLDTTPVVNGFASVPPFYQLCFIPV

Broadly, the solubility is the dissolved amount per volume that the medium holds. Higher therefore signals a readily soluble substance. One may read the IC50 as the point on the concentration scale where inhibition reaches its midpoint. The term AUC denotes concentration integrated over time. One may read the Cmax as the peak of the concentration-time curve. What is called Tmax is the time from dosing to the highest level. A word on the bioavailability: it is dose-corrected exposure relative to a reference, in per cent. Lower therefore signals poor availability. One may read the fraction unbound as free concentration divided by total concentration. A word on the half-life: it is the time needed for the level to fall by half in the phase considered. As to `COc1ncc(N2CCc3ncnc(-c4ccnc(NC5CCN(C)CC5)c4)c3C2)cc1C`, the solubility at 20 h, 130 µM in data set [1] is more than 100 µM. For the same compound, the IC50 in the data set on B-cell was 3.2 nM; in data set [2], more than 10000 nM; in data set [4], more than 10000 nM; in data set [5], more than 10000 nM; in data set [15], 7 nM. In [3], this compound showed an AUC at 24 h of 2210 ng·h/mL. For the same compound, the “inhibition (INH)” value against Cytochrome P450 3A4, on Cytochrome P450 2C19, against Cytochrome P450 2C9, against Cytochrome P450 2D6, against Cytochrome P450 2C8 and on Cytochrome P450 1A2 was “Not Active” in each case. This compound returned a clearance in data set [6] of 21.9 mL/min/kg. For the same compound, the inhibition entry in the data set on Mus musculus [7] was “Active”. The compound also yielded a Cmax in data set [8] of 160 ng/mL. Further, the Vd in data set [9] was 7.17 L/kg. Further, in data set [10], the Tmax was determined as 6 h. Further, in [11], the bioavailability came to 97%. The same compound showed a fraction unbound at 6 h, 2 µM in data set [12] of 0.3. For the same compound, in data set [13], the half-life is 4 h. The Papp at 2 h, 50 µM in [14] was 9.3 ×10⁻⁶ cm/s. Moreover, the inhibition entry with Mus musculus [16] was “Dose-dependent effect”. For the same compound, in data set [17], the CLint scaled at 0.2 µM is 81 mL/min/kg.
